Laboratory results as given in ChEMBL document CHEMBL5108022, “Structure-Activity relationship study of benzothiophene oxobutanoic acid analogues leading to novel stimulator of interferon gene (STING) agonists” (Eur J Med Chem, 2022).
pEC50, pIC50: −log10 of the molar value. Calls of active or inactive are those of the source. The rule behind the calls is not given here.

Tests used:
CT26 [1] = assay: Antitumor activity against mouse CT26 cells implanted in immunocompetent Balb/c mouse assessed as suppression of tumor growth at 250 ug, IT administered on day 1,4 and 7 and measured twice per week; format: functional, cell-based; conditions: dose 250.0 µg, time 7.0 day
[2] = target: T1, Stimulator of interferon genes protein (Homo sapiens, UniProt Q86WV6); assay: Agonist activity at STING in human THP1-Dual cells assessed as ISG pathway activation incubated for 24 hrs by Quanti-Luc or Quanti-blue reagent based luminescence assay; format: cell-based
Target sequence in this assay (Q86WV6 whole entry): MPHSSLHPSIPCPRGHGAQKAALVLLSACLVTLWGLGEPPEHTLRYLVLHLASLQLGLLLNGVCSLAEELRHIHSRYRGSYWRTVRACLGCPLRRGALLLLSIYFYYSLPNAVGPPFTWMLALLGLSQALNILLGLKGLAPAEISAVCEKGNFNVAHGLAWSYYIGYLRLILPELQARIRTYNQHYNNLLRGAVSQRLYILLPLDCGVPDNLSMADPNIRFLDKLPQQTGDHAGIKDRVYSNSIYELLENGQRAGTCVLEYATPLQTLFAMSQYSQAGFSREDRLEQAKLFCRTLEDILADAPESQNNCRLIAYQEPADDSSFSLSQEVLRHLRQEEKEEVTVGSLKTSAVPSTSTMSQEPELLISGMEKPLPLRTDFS

[3] = target: T2, Stimulator of interferon genes protein (Mus musculus) (UniProt Q3TBT3); assay: Agonist activity at STING in mouse RAW-Lucia ISG cells assessed as fold change in ISG activation at 50 uM incubated for 24 hrs by Quanti-Luc or Quanti-blue reagent based luminescence assay; format: cell-based
T2 sequence (whole entry): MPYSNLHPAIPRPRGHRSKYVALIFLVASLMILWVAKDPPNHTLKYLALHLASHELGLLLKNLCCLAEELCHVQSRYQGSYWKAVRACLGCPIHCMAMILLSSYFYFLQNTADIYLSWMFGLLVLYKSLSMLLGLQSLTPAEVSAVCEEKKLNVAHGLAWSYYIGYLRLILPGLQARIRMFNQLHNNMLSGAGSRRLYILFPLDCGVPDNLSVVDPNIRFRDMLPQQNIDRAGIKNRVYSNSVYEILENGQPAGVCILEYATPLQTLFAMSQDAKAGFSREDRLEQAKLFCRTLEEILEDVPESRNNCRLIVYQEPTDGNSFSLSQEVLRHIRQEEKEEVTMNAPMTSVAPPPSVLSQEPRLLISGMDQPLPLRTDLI

[4] = target: T1, Stimulator of interferon genes protein; assay: Agonist activity at STING in human THP1-Blue ISG cells assessed as fold change in ISG activation at 10 uM incubated for 24 hrs by Quanti-Luc or Quanti-blue reagent based luminescence assay; format: cell-based; conditions: filed as agonist
Target sequence in this assay (Q86WV6 whole entry): as the sequence (Q86WV6 whole entry) above

[5] = target: T1, Stimulator of interferon genes protein; assay: Agonist activity at STING in human THP-1 cells assessed as increase in IFN-beta secretion incubated for 5 hrs by AlphaLISA assay; format: cell-based
Target sequence in this assay (Q86WV6 whole entry): as the sequence (Q86WV6 whole entry) above

[6] = target: T1, Stimulator of interferon genes protein; assay: Displacement of cGAMP from human full length STING HAQ variant expressed in insect microsomes incubated for 16 hrs by TopCount scintillation counting method; set-up: species or system Microsome
Target sequence in this assay (Q86WV6 whole entry, looked up, change not shown): as the sequence (Q86WV6 whole entry) above

[7] = Toxicity in STING-knockout C57BL/6 mouse implanted with mouse B16-F10 cells assessed as reduction in body weight at 50 ug, IT administered on day 1,4 and 7 and measured twice per week for 8 days; format: cell-based; conditions: in vivo, other, 192 h, dose 50 µg, time 8 day
[8] = Toxicity in C57BL/6 mouse implanted with mouse B16-F10 cells assessed as reduction in body weight at 50 ug, IT administered on day 1,4 and 7 and measured twice per week for 8 days; format: cell-based; conditions: in vivo, other, 192 h, dose 50 µg, time 8 day
[9] = target: T1, Stimulator of interferon genes protein; assay: Binding affinity to STING HAQ variant (unknown origin)
Target sequence in this assay (Q86WV6 whole entry, looked up, change not shown): as the sequence (Q86WV6 whole entry) above

[10] = Toxicity in Balb/c mouse implanted with mouse CT26 cells assessed as reduction in body weight at 500 ug, IT administered on day 1,4 and 7 and measured twice per week; format: cell-based; conditions: in vivo, other, 168 h, dose 500 µg, time 7 day
[11] = target: T1, Stimulator of interferon genes protein; assay: Agonist activity at STING in human THP1-Dual cells assessed as increase in IP-10 mRNA expression at 3.3 to 30 uM incubated for 6 hrs by RT-PCR analysis; format: cell-based; conditions: filed as agonist, dose 3.3-30 µM
Target sequence in this assay (Q86WV6 whole entry): as the sequence (Q86WV6 whole entry) above

[12] = target: T1, Stimulator of interferon genes protein; assay: Agonist activity at STING in human THP1-Dual cells assessed as increase in IRF3 phosphorylation at 3.3 to 30 uM incubated for 2 to 4 hrs by Western blot analysis; format: cell-based; conditions: filed as agonist, dose 3.3-30 µM, time 2-4 hrs
Target sequence in this assay (Q86WV6 whole entry): as the sequence (Q86WV6 whole entry) above

[13] = target: T1, Stimulator of interferon genes protein; assay: Agonist activity at STING in human THP1-Dual cells assessed as increase in TBK1 phosphorylation at 3.3 to 30 uM incubated for 2 to 4 hrs by Western blot analysis; format: cell-based; conditions: filed as agonist, dose 3.3-30 µM, time 2-4 hrs
Target sequence in this assay (Q86WV6 whole entry): as the sequence (Q86WV6 whole entry) above

CT26 [14] = assay: Immunological memory derived antitumor activity against mouse CT26 cells implanted in immunocompetent Balb/c mouse assessed as suppression of tumor growth at 500 ug, IT administered on day 1,4 and 7 followed by reinoculation of cells into tumor-free animal after 2 months and measured for 22 days post inoculation; format: functional, cell-based; conditions: dose 500.0 µg, time 22.0 day
[15] = target: T1, Stimulator of interferon genes protein; assay: Agonist activity at STING in human THP1-Dual cells assessed as increase in IFN-beta mRNA expression at 3.3 to 30 uM incubated for 6 hrs by RT-PCR analysis; format: cell-based; conditions: filed as agonist, dose 3.3-30 µM
B16-F10 [16] = assay: Antitumor activity against mouse B16-F10 cells implanted in immunocompetent C57BL/6 mouse assessed as inhibition of tumor growth at 500 ug, IT administered on day 1,4 and 7 and measured twice per week for 8 days; format: functional, cell-based; conditions: dose 500.0 µg, time 8.0 day
Mus musculus = species: Mus musculus; assay: Binding affinity to mouse STING R231 variant assessed as thermal stability by measuring rightward shift in fluorescence curve at 50 uM by SYPRO orange dye based differential scanning fluorimetry assay; conditions: filed as agonist
B16-F10 [17] = assay: Antitumor activity against mouse B16-F10 cells implanted in immunocompetent C57BL/6 mouse assessed as inhibition of tumor growth at 100 mg/kg, po administered via gavage on day 1,4 and 7 and measured twice per week; format: functional, organism-based; conditions: time 7.0 day
[18] = Toxicity in C57BL/6 mouse implanted with mouse B16-F10 cells assessed as reduction in body weight at 100 mg/kg, po administered via gavage on day 1,4 and 7 and measured twice per week; format: organism-based; conditions: in vivo, 168 h, time 7 day
[19] = target: T2, Stimulator of interferon genes protein (Mus musculus); assay: Agonist activity at STING in mouse RAW-Lucia ISG cells assessed as activation of ISG pathway incubated for 24 hrs by Quanti-Luc or Quanti-blue reagent based luminescence assay; format: cell-based; conditions: filed as agonist, dose 3.12-50 µM, DDE = dose-dependent effect
CT26 [20] = assay: Antitumor activity against mouse CT26 cells implanted in immunocompetent Balb/c mouse assessed as suppression of tumor growth at 500 ug, IT administered on day 1,4 and 7 and measured twice per week; format: functional, cell-based; conditions: dose 500.0 µg, time 7.0 day
[21] = Toxicity against Balb/c mouse implanted with mouse 4T1 cells assessed as reduction in body weight at 100 mg/kg, po administered via gavage on day 1,4 and 7 and measured twice per week for 22 days; format: organism-based; conditions: in vivo, 528 h, time 22 day
[22] = Toxicity in STING-knockout C57BL/6 mouse implanted with mouse B16-F10 cells assessed as reduction in body weight at 500 ug, IT administered on day 1,4 and 7 and measured twice per week for 8 days; format: cell-based; conditions: in vivo, other, 192 h, dose 500 µg, time 8 day
Homo sapiens = species: Homo sapiens; assay: Binding affinity to human STING 293Q variant assessed as thermal stability by measuring rightward shift in fluorescence curve at 50 uM by SYPRO orange dye based differential scanning fluorimetry assay; conditions: filed as agonist
[23] = tested on: Stimulator of interferon genes protein (Homo sapiens), Q86WV6 [UNDEFINED MUTATION]; assay: Agonist activity at STING R232 variant in human 293-Dual hSTING-R232 cells assessed as activation of ISG pathway at 3.3 to 30 uM incubated for 48 hrs by Quanti-Luc or Quanti-blue reagent based luminescence assay; format: cell-based; conditions: filed as agonist, dose 3.3-30 µM
[24] = Toxicity in C57BL/6 mouse implanted with mouse B16-F10 cells assessed as reduction in body weight at 500 ug, IT administered on day 1,4 and 7 and measured twice per week for 8 days; format: cell-based; conditions: in vivo, other, 192 h, dose 500 µg, time 8 day
4T1 = assay: Antitumor activity against mouse 4T1 cells implanted in Balb/c mouse assessed as inhibition of tumor growth at 100 mg/kg, po administered via gavage on day 1,4 and 7 and measured twice per week; format: functional, organism-based; conditions: time 7.0 day
[25] = tested on: Stimulator of interferon genes protein (Homo sapiens), Q86WV6 [UNDEFINED MUTATION]; assay: Agonist activity at STING H232 variant in human 293-Dual hSTING-H232 cells assessed as activation of ISG pathway at 3.3 to 30 uM incubated for 48 hrs by Quanti-Luc or Quanti-blue reagent based luminescence assay; format: cell-based; conditions: filed as agonist, dose 3.3-30 µM

Chain of Stimulator of interferon genes protein (Homo sapiens), Q86WV6 [UNDEFINED MUTATION] (Q86WV6 whole entry, looked up, change not shown): as the sequence (Q86WV6 whole entry) above

## Cc1ccc2c(=O)c3cccc(CC(=O)O)c3oc2c1C
CT26 [1]
  Activity: Active

## COc1cc2cc(C(=O)CCC(=O)ONCc3ccccc3)sc2cc1OC
[2]
  pEC50: 5.21
[3]; filed as agonist
  fold change (FC): 25.3
[4]
  fold change (FC): 22.4

## COc1cc2cc(CCCC(=O)O)sc2cc1OC
[3]
  fold change (FC): < 1
[4]
  fold change (FC): 1

## COc1cc2cc(C(=O)CCCC(=O)O)sc2cc1OC
[3]; filed as agonist
  fold change (FC): 0.8
[4]
  fold change (FC): 1.1

## COc1cc2cc(C(=O)CCC(=O)O)oc2cc1OC
[3]; filed as agonist
  fold change (FC): 1
[4]
  fold change (FC): 0.9

## COc1cc2nc(C(=O)CCC(=O)O)[nH]c2cc1OC
[3]; filed as agonist
  fold change (FC): 1.1
[4]
  fold change (FC): 0.9

## COc1cc2cc(C3=NOC(C(=O)O)C3)sc2cc1OC (centres undefined)
[3]; filed as agonist
  fold change (FC): 0.9
[4]
  fold change (FC): 3.8

## COc1cc2cc(C(O)CCC(=O)O)sc2cc1OC (centres undefined)
[3]
  fold change (FC): < 1
[4]
  fold change (FC): 0.9

## COc1cc2cc(C(=O)CCC(=O)ONC3CCCCC3)sc2cc1OC
[3]; filed as agonist
  fold change (FC): 1.1
[4]
  fold change (FC): 25

## COc1cc2sc(C(=O)CC(C)(C)C(=O)O)cc2c(F)c1OCCCOc1c(OC)cc2sc(C(=O)CC(C)(C)C(=O)O)cc2c1F
[5]
  pEC50: 8.10
[6]
  pIC50: 8.70

## COc1cc2cc(-c3cc(C(=O)O)[nH]n3)sc2cc1OC
[3]; filed as agonist
  fold change (FC): 1
[4]
  fold change (FC): 1

## Nc1ncnc2c1ncn2[C@@H]1O[C@@H]2CO[P@@](=O)(S)O[C@@H]3[C@H](O)[C@@H](CO[P@@](=O)(S)O[C@H]2[C@H]1O)O[C@H]3n1cnc2c(N)ncnc21
[7]
  Activity: Non-Toxic
[8]
  Activity: Non-Toxic

## COc1cc2cc(C(CCC(=O)O)OC)sc2cc1OC (centres undefined)
[3]; filed as agonist
  fold change (FC): 0.5
[4]
  fold change (FC): 1

## COc1cc2cc(C(=O)CCC(=O)N(C)OC)sc2cc1OC
[3]; filed as agonist
  fold change (FC): 0.5
[4]
  fold change (FC): 3.2

## COc1cc2cc(C(=O)CCC(=O)O)sc2cc1OC
[2]
  pEC50: 5.09
[3]; filed as agonist
  fold change (FC): 13.6
[9]
  pEC50: 5.76
[4]
  fold change (FC): 23.5

## COc1cc2cc(C(=O)CCC(=O)NOCc3ccccc3)sc2cc1OC
[3]; filed as agonist
  fold change (FC): 0.8
[4]
  fold change (FC): 16.5

## COc1cc2cc(C(=O)NCCC(=O)O)sc2cc1OC
[4]
  fold change (FC): 1.2

## CONC(=O)CCC(=O)c1cc2cc(OC)c(OC)cc2s1
[3]; filed as agonist
  fold change (FC): 2.7
[4]
  fold change (FC): 24.2

## COc1cc2cc(C(=O)SCC(=O)O)sc2cc1OC
[3]; filed as agonist
  fold change (FC): 1
[4]
  fold change (FC): 1

## COc1cc2cc(C(=O)CCC(=O)ONC(C)(C)C)sc2cc1OC
[3]
  fold change (FC): < 1
[4]
  fold change (FC): 21.2

## COc1cc2cc(C(=O)CCC(=O)N(O)Cc3ccccc3)sc2cc1OC
[3]; filed as agonist
  fold change (FC): 1.1
[4]
  fold change (FC): 2.3

## COc1cc2cc(NC(=O)CC(=O)O)sc2cc1OC
[3]; filed as agonist
  fold change (FC): 1.1
[4]
  fold change (FC): 1

## COc1cc2cc(C(=O)CCC(=O)ONC(C)C)sc2cc1OC
[10]
  Activity: Non-Toxic
[2]
  pEC50: 5.59
[11]
  Activity: Active
[3]; filed as agonist
  fold change (FC): 19.3
[12]
  Activity: Active
[13]
  Activity: Active
CT26 [14]
  Activity: Active
[15]
  Activity: Active
B16-F10 [16]
  inhibition: Active
Mus musculus
  Activity: Active
B16-F10 [17]
  inhibition: Active
[18]
  Activity: Non-Toxic
[19]
  Activity: Dde
CT26 [20]
  Activity: Active
[21]
  Activity: Non-Toxic
[22]
  Activity: Non-Toxic
Homo sapiens
  Activity: Active
[23]
  Activity: Active
[24]
  Activity: Non-Toxic
4T1
  inhibition: Active
[25]
  Activity: Active
[4]
  fold change (FC): 25.4

## COc1cc2cc(C(=O)CCC(=O)N(C)O)sc2cc1OC
[3]; filed as agonist
  fold change (FC): 0.7
[4]
  fold change (FC): 15

## COc1cc2cc(C(=O)CCC(=O)N(O)C(C)C)sc2cc1OC
[3]; filed as agonist
  fold change (FC): 1.2
[4]
  fold change (FC): 1

## COc1cc2cc(C(=O)NCC(=O)O)sc2cc1OC
[4]
  fold change (FC): 1.2

## COc1cc2c(cc1OC)S(=O)(=O)C(C(=O)CCC(=O)O)=C2
[3]; filed as agonist
  fold change (FC): 0.7
[4]
  fold change (FC): 1.1
